{
  "source": "patent US7431936B2",
  "about": "“Proteins involved in cytoadhesion of plasmodium falciparum ring-stage-infected erythrocytes, antibodies which bind to the proteins, and methods for detecting infection, stage of infection and vaccines for protecting against infection” (Institut Pasteur, priority 2000, dated 2008)",
  "key": {"[1]": {"test_system": "ring-stage IE^CSA cytoadhesion to SBEC 1D", "test": "Cytoadhesion inhibition assay of IE^CSA on SBEC 1D", "type": "cell-based, P. falciparum", "details": "for sensitivity of ring-stage IE^CSA cytoadhesion to inhibitor: 0.1 mg.ml of CSA, or prior treating of target cells with 1 U/ml Case ABC, until the 16th hour after invasion (FIG. 2A); for time after invasion at which inhibition was maximal: CSA and Case ABC tested every 4 hours throughout the cycle (FIG. 2A); for inhibitory effect on ring-stage IE binding to SBEC 1D: ring-stage PA^CSA IE 8 hours post-invasion, glycosaminoglycan present or target cells enzyme-treated (FIG. 2B), thrombospondin data not shown", "protocol": "Gelatin-enriched preparations of mature-stage IE were resuspended at a concentration of 5×10^6 IE/ml in cytoadhesion medium at pH 6.8. Cytoadhesion microassays were then performed on 12-well IFA slides (Institut Pasteur, Paris) as previously desribed^15.\nRing-stage cytoadhesion assays were performed with endothelial cells as described above and with placental cryosections as previously described^11, with 1 to 10% parasitaemia (a 1×10^7 IE/ml suspension).\nFor cytoadhesion inhibition assays, the IE were incubated with SBEC in the presence of 2.5 μg/ml thrombospondin, 0.1 mg/ml soluble CSA, dermatan sulphate (CSB), chondroitin-6-sulphate (CSC), keratin sulphate (Ker), byaluronic acid (HA), heparin (Hep) (Fluka, France), or with SBEC previously incubated for 1 hour at 37° C. with 1 U/ml Case (Fluka, France), 1 to 10 U/ml heparinase III (Hepase III (Sigma, France) or 5 μg/ml anti-CD36 FA6-152 Mab (gift from Dr. Edelman). Inhibition assays were also carried out in the presence of sera obtained from Senegalese and Cameroonian patients living in areas of endemic malaria. The sera were obtained from primigravida and multigravida women, an adult and a child, absorbed onto O^+ human blood and SBEC ID, and tested at a dilution of 1/20. The results were compared to those for cytoadhesion in the presence of a 1/20 dilution of a pool of control sera from volunteers who had never contacted malaria."}, "[2]": {"test_system": "ring-stage PA^CSA IE cytoadhesion to SBEC ID", "test": "Protease sensitivity of ring-stage IE cytoadhesion", "type": "cell-based, P. falciparum", "details": "protease concentration of 100 μg/ml (FIG. 3C)", "protocol": "The protease sensitivity of ring-stage IE cytoadhesion was analyzed using 5 μl of packed PA^CSA IE (8 hours post-invasion). IE were incubated with 10 or 100 μg/ml of trypsin TPCK (Signa) or 100 µg/ml of -chymotrypsin TLCK (Sigma) for 30 minutes at 37° C. The digestion was topped by adding culture medium containing 10% human plasma. The cells were then washed in cytoadhesion medium and allowed to cytoadhere to SBEC ID, as previously described, using untreated PA^CSA as a control."}},
  "data": [
    {"molecule": "chondroitinase ABC [Case]", "values": [
      {"measurement": "sensitivity of ring-stage IE^CSA cytoadhesion to inhibitor", "setting": "[1]", "value": "insensitive"},
      {"measurement": "time after invasion at which inhibition was maximal", "setting": "[1]", "value": 24, "unit": "h"},
      {"measurement": "inhibitory effect on ring-stage IE binding to SBEC 1D", "setting": "[1]", "value": "no significant inhibitory activity"}
    ]},
    {"molecule": "heparin", "values": [
      {"measurement": "inhibition of ring-stage cytoadhesion", "setting": "[1]; Heparin (100 m/ml) and heparinase, SBEC 1D (FIG. 2B)", "value": "about 50%"}
    ]},
    {"molecule": "hyaluronate lyase", "values": [
      {"measurement": "inhibitory effect on ring-stage IE binding to SBEC 1D", "setting": "[1]", "value": "low level of inhibitory activity"}
    ]},
    {"molecule": "-chymotrypsin", "values": [
      {"measurement": "inhibition of ring-stage IE adhesion after protease treatment of IE", "setting": "[2]", "value": "substantially inhibited"}
    ]},
    {"molecule": "Hyaluronic acid", "values": [
      {"measurement": "inhibitory effect on ring-stage IE binding to SBEC 1D", "setting": "[1]", "value": "no activity"}
    ]},
    {"molecule": "chondroitin-sulphate A [CSA]", "values": [
      {"measurement": "sensitivity of ring-stage IE^CSA cytoadhesion to inhibitor", "setting": "[1]", "value": "insensitive"},
      {"measurement": "time after invasion at which inhibition was maximal", "setting": "[1]", "value": 24, "unit": "h"}
    ]},
    {"molecule": "dermatan-sulphate [CSB]", "values": [
      {"measurement": "inhibitory effect on ring-stage IE binding to SBEC 1D", "setting": "[1]", "value": "not specific"}
    ]},
    {"molecule": "Thrombospondin: mature-stage IE adhesion receptor protein tested at 2.5 μg/ml", "values": [
      {"measurement": "inhibitory effect on ring-stage IE binding to SBEC 1D", "setting": "[1]", "value": "no effect"}
    ]},
    {"molecule": "trypsin: protease used to treat ring-stage IE (protein, UniProt P00760 24-246, looked up, TPCK-treated, protease used to treat ring-stage IE) Serine protease 1: IVGGYTCGANTVPYQVSLNSGYHFCGGSLINSQWVVSAAHCYKSGIQVRLGEDNINVVEGNEQFISASKSIVHPSYNSNTLNNDIMLIKLKSAASLNSRVASISLPTSCASAGTQCLISGWGNTKSSGTSYPDVLKCLKAPILSDSSCKSAYPGQITSNMFCAGYLEGGKDSCQGDSGGPVVCSGKLQGIVSWGSGCAQKNKPGVYTKVCNYVSWIKQTIASN", "values": [
      {"measurement": "inhibition of ring-stage IE adhesion after protease treatment of IE", "setting": "[2]", "value": "substantially inhibited"}
    ]}
  ]
}
